Like-named read-outs stand apart in the source and are kept apart here.
Legend:
[1] = Cohort 1: daily sc administration in morbidly obese DIO mice, body weight, food intake, organ weight; format: in vivo, male C57BL/6 mice; details: for mean body weight change, % of starting body weight: initial 4-week period (day 28), avasimibe 10 mg/kg BW, semaglutide 0.04 mg/kg BW, HF diet
Method: (§1) Cohort 1: The first set of animal study was conducted at Nonclinical Research Institute, ChemOn Inc., and experimental procedures were approved by Institutional Animal Care and Use Committee (serial number 2021-09-007). Eight-week-old male C57BL/6 mice were purchased (Orient Bio Inc., Republic of Korea). After 2-week acclimation, the mice were fed with high-fat (HF) diet (cat #: D12492, Research Diets Inc.) for 12 weeks to develop DIO. These mice were then randomly assigned to control, avasimibe, semaglutide, and combination groups. Avasimibe solution was prepared for making the final concentration of avasimibe at 10 mg/kg BW, as described in Y. Zhu, S. Q. Kim, Y. Zhang, Q. Liu, K. H. Kim, Pharmacological inhibition of acyl-coenzyme A:cholesterol acyltransferase alleviates obesity and insulin resistance in diet-induced obese mice by regulating food intake, Metabolism 123 (2021) 154861, which is incorporated herein by reference. Semaglutide stock solution prepared in DMSO (1 mg/ml) was diluted with PBS for the final concentration of 0.04 mg/kg BW. The drug solution or the vehicle solution at a volume of 10 μl/g BW was injected to the mice sc daily for the indicated days.
Cohort 1 mice were used to investigate whether combined treatment with semaglutide and a lower dose avasimibe compared to single semaglutide injection in morbidly obese mice (FIG. 1A). On the first day of the experiment, the average body weight of the mice was recorded as 48.84±2.26 grams (FIG. 1B). […] Mice in the vehicle control and avasimibe groups were sacrificed after additional 16 days of treatment (FIG. 1A). Throughout the initial 4-week period, the mean body weight of the vehicle-treated animals increased by 1.2% compared to their starting body weight. In contrast, the mean body weight changes for mice treated with avasimibe, semaglutide, or the combination of both drugs were −6.29%, −21.66%, and −30.47% of their starting body weight, respectively (FIG. 1C). […] Y. Zhu, S. Q. Kim, Y. Zhang, Q. Liu, K. H. Kim, Pharmacological inhibition of acyl-coenzyme A:cholesterol acyltransferase alleviates obesity and insulin resistance in diet-induced obese mice by regulating food intake, Metabolism 123 (2021) 154861, which is incorporated herein by reference. Consequently, we increased the avasimibe dose to 20 mg/kg BW in the subsequent study involving the second cohort of mice. […] However, as the treatment regimen continued, food intake gradually returned to baseline levels, and the effect of semaglutide diminished around day 26. […] To investigate potential toxic effects of the combination treatment on the liver, we measured plasma ALT and AST levels.

[2] = Cohort 2: histological measurement of adipocyte size in inguinal fat pad (H&E); format: in vivo, male C57BL/6 mice; details: sc every three days for 23 days
Method: (§2) Cohort 2: The second set of animal experiments were conducted according to a protocol approved by the Purdue Animal Care and Use Committee (protocol number: 11129000347). Male C57BL/6 DIO mice were purchased from Jackson Laboratory. After 8-week HF diet feeding, mice were randomly assigned to the same groups as cohort 1: control, avasimibe, semaglutide, and combination groups. Avasimibe (20 mg/kg BW) and semaglutide (0.04 mg/kg BW) were prepared in the method used with regard to Cohort 1, and the drugs were sc injected every three days for 23 days. Mice were kept on a 12/12 h light/dark cycle in a humidity and temperature control facility with ad libitum access to food and water.
During animal sacrifice, adipose tissues were rinsed with saline solution, fixed in 10% neutral formalin buffered solution, and embedded in paraffin. The tissues were then cut into […] sections and stained with hematoxylin and eosin (H&E) to measure cell size (˜100 cells/mouse) by ImageJ software (NIH).

[3] = Cohort 2: oral glucose tolerance test (OGTT); format: in vivo, male C57BL/6 mice; details: sc every three days, avasimibe 20 mg/kg BW; D-glucose 2 g/kg BW oral after 6 h fast
Method: as §2, with “water. Mice were fasted for 6 hrs (07:00-13:00) prior to oral administration of D-glucose (2 g/kg BW). Tail blood samples were obtained before (at 0) and at 15, 30, 60, 90 and 120 minutes after glucose challenge for the measurement of blood glucose concentration using a CONTOUR® NEXT glucometer (Ascensia Diabetes Care, Parsippany, NJ, USA).” for “water.”

[4] = daily intraperitoneal (ip) 20 mg/kg BW avasimibe for 14 day; cited from earlier work
[5] = format: in vivo, male C57BL/6 mice; set-up: Plasma Cholesterol / Plasma CE (cholesteryl ester): unit not given here; details: mean±SEM, n=10
Method: as §1
Body composition (e.g., fat mass, lean mass, free water, and total water) changes were assessed right before sacrificing the second cohort of mice using EchoMRI (Echo Medical Systems). Blood samples were obtained after fasting for 3h, frozen and stored until analysis. Aspartate transaminase (AST), alanine aminotransferase (ALT), glucose, triglycerides (TG), high-density lipoprotein (HDL-C) and low-density lipoprotein cholesterol (LDL-C) were also measured (AU680 Chemistry Analyzer, Beckman Coulter). The levels of serum leptin (cat #: ab100718, Abcam) and insulin (cat #: ab277390, Abcam) were determined by enzyme-linked immunosorbent assay kit and cholesterol/CE (cat #: ab65359, Abcam) was determined by an enzymatic assay according to the manufacturers' instructions.

[6] = Cohort 2: sc administration every three days for 23 days in moderately obese DIO mice, body weight and food intake; format: in vivo, male C57BL/6 mice; details: for mean body weight loss, % of the starting body weight: sc every three days for 23 days, avasimibe 20 mg/kg BW, HF diet
Method: as §2, with “water. To validate the impact of the combined treatment of semaglutide and avasimibe in DIO mice and to simulate a weekly semaglutide regimen for humans, we utilized Cohort 2 mice (FIG. 2A). On day 1, the average body weight of the mice was recorded as 37.37±3.58 grams. Throughout the treatment period, the mice in the vehicle group continued to gain weight, reaching an average body weight of 41.58±4.74 grams, representing a […] increase from the starting body weight (FIG. 2B). […] Specifically, the mean body weight losses were 0.82%, 8.56%, and 14.89% of the starting body weight for the mice treated with avasimibe, semaglutide, and the combination of both drugs, respectively (FIG. 2C).” for “water.”

[7] = Day 43, daily sc avasimibe 10 mg/kg BW
[8] = Day 29, daily sc semaglutide 0.04 mg/kg BW with or without avasimibe 10 mg/kg BW

With `CC(C)c1cc(C(C)C)c(CC(=O)NS(=O)(=O)Oc2c(C(C)C)cccc2C(C)C)c(C(C)C)c1` [Avasimibe, avasimibe] the “mean body weight change, % of starting body weight” value ([1]; daily sc) was −6.29%, the “percentage of large adipocytes (20,001-100,000 μm^2) compared to vehicle group” value [2] was “lower percentage” and the “percentage of small adipocytes (5,001-10,000 μm^2) compared to vehicle group” value [2] was “significantly higher percentage”. For the same compound, the “glucose tolerance in OGTT” value [3] was “did not enhance glucose tolerance”, the “reduction in body weight” value [4] was 24% and the “Plasma Glucose” value [5, 7] was 139.7 ± 6.32 mg/dL. For the same compound, the “Plasma HDL” value [5, 7] was 35.13 ± 1.14 mg/dL, the “Plasma Insulin” value [5, 7] was 1.43 ± 0.29 mIU/mL and the “Plasma LDL” value [5, 7] was 7.14 ± 0.46 mg/dL. For the same compound, the “Plasma Leptin” value [5, 7] was 6.72 ± 1.40 pg/mL, the “Plasma TG (triglyceride)” value [5, 7] was 33.80 ± 2.09 mg/dL and the “mean body weight loss, % of the starting body weight” value ([6]; semaglutide 0.04 mg/kg BW) was 0.82%.
With semaglutide the “day around which the effect on food intake diminished” value ([1]; daily sc semaglutide 0.04 mg/kg BW) was about 26 days, the “mean body weight change, % of starting body weight” value ([1]; daily sc) was −21.66% and the “food intake compared to vehicle or avasimibe alone” value ([1]; daily sc, early treatment period) was “rapid suppression of food intake”. The “percentage of large adipocytes (40,001-100,000 μm^2) compared to vehicle group” value [2] was “lower percentage”, the “Plasma CE (cholesteryl ester)” value [5, 8] was 7.071 ± 0.240 and the “Plasma Cholesterol” value [5, 8] was 8.055 ± 0.292. The “Plasma Glucose” value [5, 8] was 121.73 ± 6.26 mg/dL, the “Plasma HDL” value [5, 8] was 37.02 ± 1.14 mg/dL and the “Plasma Insulin” value [5, 8] was 0.41 ± 0.07 mIU/mL. For the same compound, the “Plasma LDL” value [5, 8] was 5.05 ± 0.60 mg/dL, the “Plasma Leptin” value [5, 8] was 2.99 ± 0.65 pg/mL and the “Plasma TG (triglyceride)” value [5, 8] was 21.60 ± 1.38 mg/dL. The “mean body weight loss, % of the starting body weight” value ([6]; semaglutide 0.04 mg/kg BW) was 8.56%, the “time for food intake to recover after each administration” value ([6]; sc every three days, semaglutide 0.04 mg/kg BW) was at most 48 h and the “food intake by day 22, versus vehicle group” value ([6]; sc every three days, by the seventh administration) was “surpass that of the vehicle group”.

Reference: patent US20240148833A1, “COMPOSITION COMPRISING GLP-1 RECEPTOR AGONIST AND ACAT INHIBITOR” (EFIL BioScience Inc., priority 2022, published 2024)
